Data from ChEMBL document CHEMBL1201862, “PubChem BioAssay data set” (2004).
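Five compound concentrations were applied to cells in 96-well plates for 48 hours; endpoints were derived by simple linear interpolation of the resulting dose-response curve. Here, GI50 denotes the concentration required for 50% inhibition of growth.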 The source made the active and inactive calls. No stated cut-off is given here; in the data, active = GI50 up to about 1.1 µM and inactive = higher.

Legend:
Assay in all cases: inhibition of tumour cell growth, NCI panel, 48 h
[1] = system: A498
[2] = system: A549
[3] = system: ACHN
[4] = system: CAKI-1
[5] = system: EKVX
[6] = system: HCC 2998
[7] = system: HL-60
[8] = system: HOP-62
[9] = system: HT-29
[10] = system: KM12
[11] = system: LOX IMVI
[12] = system: MDA-MB-435
[13] = system: MDA-N
[14] = system: Malme-3M
[15] = system: NCI-H460
[16] = system: NCI-H522
[17] = system: OVCAR-5
[18] = system: SK-MEL-5
[19] = system: SR
[20] = system: BT-549

Measured: GI50

CN(C)c1cccc(NC2=NCCO2)c1
inactive: [1] 74.5 µM | [2] > 100 µM | [3] 90.4 µM | [4] > 100 µM | [5] 78.5 µM | [6] 89.9 µM | [7] 23.1 µM | [8] 81.1 µM | [9] 19.2 µM | [10] 40.5 µM | [11] 31.9 µM | [12] 19.8 µM | [13] 17.5 µM | [14] 33.9 µM | [15] 32.4 µM | [16] 80.2 µM | [17] > 100 µM | [18] 43.6 µM | [19] 30.3 µM

Clc1ccc(Cl)c(SCCCN2CCNCC2)c1
inactive: [1] 13.7 µM | [2] 20.6 µM | [3] 15.1 µM | [20] 17.1 µM | [4] 17.8 µM | [5] 16.9 µM | [6] 3.61 µM | [7] 14.2 µM | [8] 18 µM | [9] 14.6 µM | [10] 25.5 µM | [11] 14.9 µM | [12] 14 µM | [14] 15.8 µM | [15] 18.4 µM | [16] 16.3 µM | [17] 15.5 µM | [18] 15.2 µM

COC1=C(OC)C(=O)C(Cc2c(Cl)nc3sccn23)=C(C)C1=O
inactive: [1] 12.8 µM | [2] 11.6 µM | [3] 12.4 µM | [20] 14.4 µM | [4] 14.3 µM | [5] 7.11 µM | [6] 15.7 µM | [7] 2.42 µM | [8] 16.1 µM | [9] 14.6 µM | [10] 10.4 µM | [11] 2.96 µM | [12] 8.91 µM | [14] 1.85 µM | [15] 12.8 µM | [16] 6.15 µM | [17] 16.9 µM | [18] 4.14 µM | [19] 5.04 µM

O=C1/C(=C/c2ccc(O)cc2)NC(=S)N1CN1CCCCC1
inactive: [1] 96.6 µM | [2] > 100 µM | [3] 45.7 µM | [5] > 100 µM | [7] 71.6 µM | [8] > 100 µM | [9] 43 µM | [10] > 100 µM | [11] 40.1 µM | [12] 70.3 µM | [13] > 100 µM | [14] > 100 µM | [16] 55.3 µM | [17] > 100 µM | [18] 27.4 µM | [19] 49.2 µM

COC(=O)[C@]1(C)CCC[C@@]2(C)C1CC[C@]13C=C(C(C)C)[C@H](CC21)CC3(Cl)C#N (stereo partly drawn)
inactive: [1] > 100 µM | [2] 57.5 µM | [3] 43.9 µM | [20] 35.6 µM | [4] 66.1 µM | [5] 31.5 µM | [6] 29.8 µM | [8] 36.3 µM | [9] 27.4 µM | [10] 38.1 µM | [12] 42.6 µM | [14] 36.6 µM | [15] 41.7 µM | [16] 26.5 µM | [17] > 100 µM | [18] 37.8 µM | [19] 32.1 µM

O=[N+]([O-])c1cccc2nccc(NCCN3CCOCC3)c12
inactive: [1] 13.2 µM | [2] 18.2 µM | [3] 22.4 µM | [4] 2.6 µM | [5] 10.7 µM | [6] 11.5 µM | [7] 10.6 µM | [8] 15.5 µM | [9] 13.5 µM | [10] 10.5 µM | [11] 13.4 µM | [12] 22.9 µM | [13] 16.7 µM | [14] 13.8 µM | [15] 6.87 µM | [16] 3.95 µM | [17] 21.4 µM | [18] 10 µM | [19] 10.1 µM

NCc1ccc(-c2ccc(CN)s2)s1
inactive: [1] 1.22 µM | [2] > 100 µM | [3] > 100 µM | [4] > 100 µM | [5] > 100 µM | [6] > 100 µM | [7] > 100 µM | [8] > 100 µM | [9] > 100 µM | [10] > 100 µM | [11] > 100 µM | [12] > 100 µM | [13] > 100 µM | [14] > 100 µM | [16] > 100 µM | [17] 56.2 µM | [18] > 100 µM

CCNc1cc2c3c(c1)CCCN3CCC2
inactive: [1] 23.3 µM | [2] 17.9 µM | [3] 19.6 µM | [4] 31.6 µM | [5] 4.03 µM | [6] 33 µM | [7] 11.8 µM | [8] 14.6 µM | [9] 6.78 µM | [10] 15.7 µM | [11] 3.1 µM | [12] 3.44 µM | [13] 3.1 µM | [14] 19.3 µM | [15] 15.1 µM | [16] 21 µM | [17] 21.6 µM | [18] 13.7 µM | [19] 4.22 µM

N#CCCC1(CCC#N)CCCCCCC(CCC#N)(CCC#N)C(=O)C1=O
inactive: [1] 50 µM | [2] > 100 µM | [3] > 100 µM | [4] > 100 µM | [5] > 100 µM | [6] 67.1 µM | [8] > 100 µM | [9] > 100 µM | [10] > 100 µM | [11] > 100 µM | [12] > 100 µM | [13] > 100 µM | [14] > 100 µM | [15] > 100 µM | [16] > 100 µM | [17] > 100 µM | [18] > 100 µM | [19] > 100 µM

CC1(C)N=C(/C=N/O)C(C)(C)N1O
inactive: [1] > 100 µM | [2] > 100 µM | [3] > 100 µM | [5] > 100 µM | [6] > 100 µM | [7] > 100 µM | [8] > 100 µM | [9] > 100 µM | [10] > 100 µM | [11] > 100 µM | [12] > 100 µM | [13] > 100 µM | [14] > 100 µM | [15] > 100 µM | [16] > 100 µM | [17] > 100 µM | [18] > 100 µM | [19] > 100 µM

O=C1c2ccccc2C(=O)c2c1ccc(C1C(=O)c3ccccc3C1=O)c2-c1c(C2C(=O)c3ccccc3C2=O)ccc2c1C(=O)c1ccccc1C2=O
inactive: [1] > 100 µM | [2] > 100 µM | [3] > 100 µM | [20] > 100 µM | [4] > 100 µM | [5] > 100 µM | [7] 7.89 µM | [8] > 100 µM | [9] > 100 µM | [10] > 100 µM | [11] 74.3 µM | [12] > 100 µM | [13] > 100 µM | [14] > 100 µM | [15] > 100 µM | [16] > 100 µM | [17] > 100 µM | [18] > 100 µM
